In brackets after ≈: the same amount, converted by molar mass. Activity calls are given as the source filed them. The calls are words filed in the database; no cut-off is given here.
Columns and labels:
[1] = Solubility of compound in 5 % DMSO in water by HPLC-MS analysis; assay type: physicochemical
[2] = tested on: CCRF-CEM; experiment: Induction of apoptosis in human CCRF-CEM cells assessed as late apoptotic cells at 5 times IC50 concentration measured after 24 hrs by AnnexinV-FITC/propidium iodide staining based flow cytometry analysis (reference value: 0.1 %); assay type: functional
[3] = tested on: CCRF-CEM; experiment: Cell cycle arrest in human CCRF-CEM cells assessed as increase in G2/M phase accumulation at 5 times IC50 measured after 24 hrs by propidium iodide/RNase staining based flow cytometry analysis; assay type: functional
[4] = Solubility of compound in 10 % DMSO in water by HPLC-MS analysis; assay type: physicochemical
[5] = Permeability of compound in PBS buffer assessed as permeability coefficient at pH 7.4 incubated for 18 hrs by PAMPA based RF-MS analysis; assay type: ADME; details: pH 7.4, 18 h
[6] = Microsomal stability in human liver microsomes assessed as parent compound remaining at 2 uM incubated for 30 mins by RF-MS analysis; assay type: ADME, Microsome; details: read-out: Stability
[7] = Chemical stability of compound in PBS buffer assessed as parent compound remaining at 2 uM at pH 7.4 and 37 degC incubated for 30 mins by RF-MS analysis; assay type: physicochemical; details: read-out: Stability
[8] = tested on: CCRF-CEM; experiment: Induction of mitochondrial membrane depolarization in human CCRF-CEM cells at 5 times IC50 measured after 24 hrs by JC-1 staining based flow cytometry analysis (reference value: 8.4 %); assay type: functional
[9] = tested on: CCRF-CEM; experiment: Induction of apoptosis in human CCRF-CEM cells assessed as early apoptotic cells at 5 times IC50 concentration measured after 24 hrs by AnnexinV-FITC/propidium iodide staining based flow cytometry analysis (reference value: 2.8 %); assay type: functional
[10] = tested on: CCRF-CEM; experiment: Induction of apoptosis in human CCRF-CEM cells assessed as decrease in Bcl-2 expression at 5 times IC50 concentration measured after 24 hrs by Western blot analysis; assay type: functional, cell-based
[11] = tested on: HCT-116; experiment: Cytotoxicity against p53 knockout human HCT116 cells incubated for 72 hrs by MTS assay; assay type: functional, cell-based; details: HCT-116, 72 h
[12] = Stability in human plasma assessed as parent compound remaining at 2 uM incubated for 30 mins by RF-MS analysis; assay type: ADME, cell-free; details: read-out: Stability
[13] = Stability in human plasma assessed as parent compound remaining at 2 uM incubated for 15 mins by RF-MS analysis; assay type: ADME, cell-free; details: read-out: Stability
[14] = tested on: CCRF-CEM; experiment: Induction of apoptosis in human CCRF-CEM cells assessed as viable cells at 5 times IC50 concentration measured after 24 hrs by AnnexinV-FITC/propidium iodide staining based flow cytometry analysis (reference value: 97 %); assay type: functional
[15] = tested on: CCRF-CEM; experiment: Induction of apoptosis in human CCRF-CEM cells assessed as increase in BAX expression at 5 times IC50 concentration measured after 24 hrs by Western blot analysis; assay type: functional, cell-based
[16] = tested on: U2OS; experiment: Cytotoxicity against human U2OS cells incubated for 72 hrs by MTS assay; assay type: functional, cell-based
[17] = tested on: CCRF-CEM; experiment: Induction of apoptosis in human CCRF-CEM cells assessed as increase in caspase 3/7 activity using Ac-DEVD-AMC as substrate at 5 times IC50 concentration measured after 24 hrs by fluorescence assay; assay type: functional, cell-based
[18] = tested on: K562; experiment: Cytotoxicity against human K562 cells incubated for 72 hrs by MTS assay; assay type: functional, cell-based; details: K562, 72 h
[19] = tested on: CCRF-CEM; experiment: Cytotoxicity against human CCRF-CEM cells incubated for 72 hrs by MTS assay; assay type: functional, cell-based
[20] = Microsomal stability in human liver microsomes assessed as parent compound remaining at 2 uM incubated for 60 mins by RF-MS analysis; assay type: ADME, Microsome; details: read-out: Stability
[21] = Stability in human plasma assessed as parent compound remaining at 2 uM incubated for 120 mins by RF-MS analysis; assay type: ADME, cell-free; details: read-out: Stability
[22] = Cytotoxicity against human CEM-DNR-bulk cells incubated for 72 hrs by MTS assay; assay type: functional, cell-based
[23] = tested on: CCRF-CEM; experiment: Induction of apoptosis in human CCRF-CEM cells assessed as activation of procaspase 8 at 5 times IC50 concentration measured after 24 hrs by Western blot analysis; assay type: functional, cell-based
[24] = Solubility of compound in 0.5 % DMSO in water by HPLC-MS analysis; assay type: physicochemical
[25] = Cytotoxicity against human K562-TAX cells incubated for 72 hrs by MTS assay; assay type: functional, cell-based
[26] = Protein binding in human plasma at 10 uM measured after 4 hrs by rapid equilibrium dialysis; assay type: ADME, cell-free; details: read-out: PPB (converted)
[27] = tested on: BJ; experiment: Cytotoxicity against human BJ cells incubated for 72 hrs by MTS assay; assay type: cell-based
[28] = tested on: A549; experiment: Cytotoxicity against human A549 cells incubated for 72 hrs by MTS assay; assay type: functional, cell-based; details: A549, 72 h
[29] = tested on: CCRF-CEM; experiment: Induction of apoptosis in human CCRF-CEM cells assessed as necrotic cells at 5 times IC50 concentration measured after 24 hrs by AnnexinV-FITC/propidium iodide staining based flow cytometry analysis (reference value: 0.1 %); assay type: functional
[30] = tested on: HCT-116; experiment: Cytotoxicity against human HCT116 cells incubated for 72 hrs by MTS assay; assay type: functional, cell-based; details: HCT-116, 72 h
[31] = Chemical stability of compound in PBS buffer assessed as parent compound remaining at 2 uM at pH 7.4 and 37 degC incubated for 15 mins by RF-MS analysis; assay type: physicochemical; details: read-out: Stability
[32] = Chemical stability of compound in PBS buffer assessed as parent compound remaining at 2 uM at pH 7.4 and 37 degC incubated for 120 mins by RF-MS analysis; assay type: physicochemical; details: read-out: Stability
[33] = Stability in human plasma assessed as parent compound remaining at 2 uM incubated for 60 mins by RF-MS analysis; assay type: ADME, cell-free; details: read-out: Stability
[34] = Chemical stability of compound in PBS buffer assessed as parent compound remaining at 2 uM at pH 7.4 and 37 degC incubated for 60 mins by RF-MS analysis; assay type: physicochemical; details: read-out: Stability
[35] = Microsomal stability in human liver microsomes assessed as parent compound remaining at 2 uM incubated for 15 mins by RF-MS analysis; assay type: ADME, Microsome; details: read-out: Stability
[36] = tested on: MRC5; experiment: Cytotoxicity against human MRC5 cells incubated for 72 hrs by MTS assay; assay type: cell-based; details: MRC5, 72 h
[37] = tested on: CCRF-CEM; experiment: Cell cycle arrest in human CCRF-CEM cells assessed as decrease in proportion of cells in S phase at 5 times IC50 measured after 24 hrs by propidium iodide/RNase staining based flow cytometry analysis; assay type: functional

Compound | remaining at 0.5 h, 2 µM [6] [%] | remaining at 0.5 h, 2 µM [7] [%] | IC50 [11] [µM] | remaining at 0.5 h, 2 µM [12] [%] | remaining at 0.25 h, 2 µM [13] [%] | IC50 [16] [µM] | IC50 [18] [µM] | IC50 [19] [µM] | remaining at 1 h, 2 µM [20] [%] | remaining at 2 h, 2 µM [21] [%] | IC50 [22] [µM] | IC50 [25] [µM] | IC50 [27] [µM] | IC50 [28] [µM] | IC50 [30] [µM] | remaining at 0.25 h, 2 µM [31] [%] | remaining at 2 h, 2 µM [32] [%] | remaining at 1 h, 2 µM [33] [%] | remaining at 1 h, 2 µM [34] [%] | IC50 [36] [µM] | other results
CC1(C)CC[C@]2(C(=O)O)CC[C@]3(C)C(=CC[C@@H]4[C@@]5(C)Cc6sc(N)nc6C(C)(C)[C@@H]5CC[C@]43C)[C@@H]2C1 | 90 | 77 | 33.3 | 99.2 | 99.4 | 28.8 | > 50 | 5.2 | 87.1 | 99.1 | 19.8 | 18.9 | > 50 | 47.7 | 31 | 91.2 | 74.9 | 99.4 | 74.8 | > 50 | solubility [1]: 45 µM (≈ 23 µg/mL); Activity [2]: 0.5%; Activity [3]: Active; solubility [4]: 91 µM (≈ 46.5 µg/mL); log(permeability) [5]: -7.16; Activity [8]: 23.4%; Activity [9]: 12%; Activity [10]: Active; Activity [14]: 87.4%; Activity [15]: Active; Activity [17]: Active; Activity [23]: Active; solubility [24]: 27 µM (≈ 13.8 µg/mL); fraction unbound at 4 h, 10 µM [26]: 0.011; Activity [29]: 0.1%; remaining at 0.25 h, 2 µM [35]: 96.8%; Activity [37]: Active
C=C(C)[C@@H]1CC[C@]2(C(=O)O)CC[C@]3(C)[C@H](CC[C@@H]4[C@@]5(C)CC(SC#N)C(=O)C(C)(C)[C@@H]5CC[C@]43C)[C@@H]12 (stereo partly drawn) | 86.4 | 67.5 | 11.9 | 75.9 | 99 | 20.2 | 28.5 | 2.4 | 56.8 | 7.6 | 6.8 | 16.6 | 19.8 | 21.2 | 3.3 | 99.9 | 69.8 | 35.7 | 54.2 | 18.7 | remaining at 0.25 h, 2 µM [35]: 90.1%
C=C(C)[C@@H]1CC[C@]2(C(=O)O)CC[C@]3(C)[C@H](CC[C@@H]4[C@@]5(C)Cc6sc(N(CC)CC)nc6C(C)(C)[C@@H]5CC[C@]43C)[C@@H]12 | – | – | 31.6 | – | – | > 50 | 29.5 | 8.5 | – | – | > 50 | 46.8 | > 50 | > 50 | > 50 | – | – | – | – | 23.3 | –
C[C@H]1[C@H](C)CC[C@]2(C(=O)O)CC[C@]3(C)C(=CC[C@@H]4[C@@]5(C)Cc6sc(NC7CCCCC7)nc6C(C)(C)[C@@H]5CC[C@]43C)[C@H]12 | – | – | > 50 | – | – | > 50 | > 50 | 19.4 | – | – | > 50 | > 50 | > 50 | > 50 | > 50 | – | – | – | – | > 50 | –

From ChEMBL document CHEMBL4312011, “Synthesis and biological evaluation of triterpenoid thiazoles derived from betulonic acid, dihydrobetulonic acid, and ursonic acid” (Eur J Med Chem, 2020)
